# Measured values published in patent US20150119435A1, “COMPOUNDS USEFUL FOR PROMOTING PROTEIN DEGRADATION AND METHODS USING SAME” (YALE UNIVERSITY, priority 2012, published 2015).
# Experiments:
# androgen receptor (AR) = target: T1, androgen receptor (AR) (Homo sapiens, UniProt P10275); experiment: SARD mediated AR degradation (western blot); settings: for AR degradation (in words): at the concentrations assayed
# T1 sequence (P10275 1-920): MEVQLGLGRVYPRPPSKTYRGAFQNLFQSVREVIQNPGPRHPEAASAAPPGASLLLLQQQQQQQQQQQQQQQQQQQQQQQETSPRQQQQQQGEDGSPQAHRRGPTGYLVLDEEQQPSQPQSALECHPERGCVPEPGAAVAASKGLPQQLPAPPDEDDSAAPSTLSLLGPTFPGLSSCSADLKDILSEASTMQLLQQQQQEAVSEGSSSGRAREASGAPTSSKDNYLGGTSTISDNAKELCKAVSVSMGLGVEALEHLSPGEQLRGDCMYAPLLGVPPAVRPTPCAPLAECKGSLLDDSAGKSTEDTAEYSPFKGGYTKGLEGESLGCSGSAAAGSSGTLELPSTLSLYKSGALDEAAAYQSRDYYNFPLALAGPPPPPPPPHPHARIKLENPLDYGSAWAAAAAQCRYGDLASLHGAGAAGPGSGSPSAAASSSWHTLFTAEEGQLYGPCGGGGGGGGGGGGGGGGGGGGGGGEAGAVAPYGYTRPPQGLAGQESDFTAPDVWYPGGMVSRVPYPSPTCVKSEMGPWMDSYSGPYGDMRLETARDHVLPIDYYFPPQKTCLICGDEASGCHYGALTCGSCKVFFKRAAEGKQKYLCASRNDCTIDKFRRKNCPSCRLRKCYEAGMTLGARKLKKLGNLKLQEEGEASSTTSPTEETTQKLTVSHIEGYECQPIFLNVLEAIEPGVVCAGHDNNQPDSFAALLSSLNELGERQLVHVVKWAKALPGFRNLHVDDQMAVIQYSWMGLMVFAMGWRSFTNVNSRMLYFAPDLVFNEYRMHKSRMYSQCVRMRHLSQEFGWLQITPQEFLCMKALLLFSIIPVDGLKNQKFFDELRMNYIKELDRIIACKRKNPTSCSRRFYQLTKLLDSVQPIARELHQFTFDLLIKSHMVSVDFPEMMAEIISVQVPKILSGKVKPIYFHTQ
# [1] = tested on: androgen dependent LnCAP cells; experiment: Proliferation of androgen dependent LnCAP prostate cancer cells; type: cell-based; settings: 1 μM, several days
# From the text: (§1) FIG. 26, comprising FIGS. 26A-26C, is a series of graphs illustrating in vitro activity of SARDS compounds. FIG. 26A: effect of SARDS on cell proliferation of LnCAPs. FIG. 26B: effect of SARDS on the proliferation of non-AR dependent cell lines. FIG. 26C: effect of SARDS on androgen independent prostate cancer cells.
# [2] = tested on: AR-independent HEK293 cells; experiment: General cell toxicity in AR-independent HEK293 cells; type: cell-based; settings: HEK293, 1 μM, 48 h
# Protocol: as §1
# (§2) To access general cell toxicity, AR-independent HEK293 and HELA cells were treated with 1 μM SARD 279.
# [3] = tested on: AR-independent HELA cells; experiment: General cell toxicity in AR-independent HELA cells; type: cell-based; settings: 1 μM, 48 h
# Protocol: as §1, §2
structure (smiles),measurement,setting,value
"CC1(C)C(=O)N(c2ccc(C#N)c(C(F)(F)F)c2)C(=S)N1CCCCO [RU 59063, 4-[3-(4-hydroxybutyl)-4,4-dimethyl-5-oxo-2-thioxoimidazolidin-1-yl]-2-(trifluoromethyl)benzonitrile, reference compound]",AR degradation (in words),androgen receptor (AR),no degradation was detected
"CC1(C)C(=O)N(c2ccc(C#N)c(C(F)(F)F)c2)C(=S)N1CCCC(=O)NCCOCCOCCOCCOC12CC3CC(CC(C3)C1)C2 [SARD 033, N-(2-(2-(2-(2-(Adamantan-1-yloxy)ethoxy)ethoxy)ethoxy)ethyl)-4-(3-(4-cyano-3-(trifluoromethyl)phenyl)-5,5-dimethyl-4-oxo-2-thioxoimidazolidin-1-yl)butanamide]",Cell growth / proliferation of LnCAP cells,[1],significantly attenuated cell growth
"CC1(C)C(=O)N(c2ccc(C#N)c(C(F)(F)F)c2)C(=S)N1CCCC(=O)NCCOCCOC(=O)CC12CC3CC(CC(C3)C1)C2 [SARD 279, 2-(2-(4-(3-(4-Cyano-3-(trifluoromethyl)phenyl)-5,5-dimethyl-4-oxo-2-thioxoimidazolidin-1-yl)butanamido)ethoxy)ethyl 2-(adamantan-1-yl)acetate]",Cytotoxicity compared to vehicle,[2],did not display cytotoxic results
same,Cytotoxicity compared to vehicle,[3],did not display cytotoxic results
same,DC50,"androgen receptor (AR); read-out: DC50 (half maximum degradation concentration) of AR, AR degradation, western blot",1 µM
"CCOCCOCCNC(=O)CCCN1C(=S)N(c2ccc(C#N)c(C(F)(F)F)c2)C(=O)C1(C)C [SARD 280, 4-(3-(4-Cyano-3-(trifluoromethyl)phenyl)-5,5-dimethyl-4-oxo-2-thioxoimidazolidin-1-yl)-N-(2-(2-ethoxyethoxyl)ethyl)butanamide]",AR degradation (in words),androgen receptor (AR),affected degradation only at higher concentrations and did not achieve complete AR degradation at the concentrations assayed
